# Data published in ChEMBL document CHEMBL1135513 (J Med Chem, 2002).
# pEC50: −log10 of the molar value.
# Key:
# [1] = target: T1, GABA-A receptor; alpha-1/beta-2/gamma-2 (Homo sapiens, UniProt P14867+P18507+P47870); assay: Potentiation of GABA responses at human Gamma-aminobutyric acid A receptor alpha-1-beta-2-gamma-2; assay type: protein-complex assay
# T1 sequence (P14867 whole entry): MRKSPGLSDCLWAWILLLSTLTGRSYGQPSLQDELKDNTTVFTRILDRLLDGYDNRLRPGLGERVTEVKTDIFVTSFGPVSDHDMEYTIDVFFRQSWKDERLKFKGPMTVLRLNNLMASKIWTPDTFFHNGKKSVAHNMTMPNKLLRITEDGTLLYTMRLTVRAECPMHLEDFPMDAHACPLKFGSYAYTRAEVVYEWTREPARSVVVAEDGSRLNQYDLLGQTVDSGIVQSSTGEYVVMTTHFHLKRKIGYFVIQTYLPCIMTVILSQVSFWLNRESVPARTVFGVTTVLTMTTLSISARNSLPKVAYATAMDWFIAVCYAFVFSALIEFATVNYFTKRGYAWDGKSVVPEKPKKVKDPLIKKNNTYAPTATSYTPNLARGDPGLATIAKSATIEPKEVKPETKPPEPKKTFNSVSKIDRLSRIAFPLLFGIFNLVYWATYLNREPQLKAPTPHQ
# T1 sequence (P47870 whole entry): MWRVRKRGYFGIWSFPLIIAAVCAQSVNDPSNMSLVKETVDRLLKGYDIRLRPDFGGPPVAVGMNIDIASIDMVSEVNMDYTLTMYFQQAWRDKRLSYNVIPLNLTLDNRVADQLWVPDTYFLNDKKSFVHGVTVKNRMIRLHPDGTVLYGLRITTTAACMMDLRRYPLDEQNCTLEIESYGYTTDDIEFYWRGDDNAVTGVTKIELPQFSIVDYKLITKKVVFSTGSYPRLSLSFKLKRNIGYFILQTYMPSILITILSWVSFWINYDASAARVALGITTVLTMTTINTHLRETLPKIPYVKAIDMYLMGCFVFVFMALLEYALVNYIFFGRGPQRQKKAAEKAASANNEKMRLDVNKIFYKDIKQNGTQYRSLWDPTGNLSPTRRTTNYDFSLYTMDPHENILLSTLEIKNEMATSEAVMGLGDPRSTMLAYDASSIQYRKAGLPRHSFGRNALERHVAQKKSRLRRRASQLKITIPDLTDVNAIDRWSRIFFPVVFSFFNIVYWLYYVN
# T1 sequence (P18507 whole entry): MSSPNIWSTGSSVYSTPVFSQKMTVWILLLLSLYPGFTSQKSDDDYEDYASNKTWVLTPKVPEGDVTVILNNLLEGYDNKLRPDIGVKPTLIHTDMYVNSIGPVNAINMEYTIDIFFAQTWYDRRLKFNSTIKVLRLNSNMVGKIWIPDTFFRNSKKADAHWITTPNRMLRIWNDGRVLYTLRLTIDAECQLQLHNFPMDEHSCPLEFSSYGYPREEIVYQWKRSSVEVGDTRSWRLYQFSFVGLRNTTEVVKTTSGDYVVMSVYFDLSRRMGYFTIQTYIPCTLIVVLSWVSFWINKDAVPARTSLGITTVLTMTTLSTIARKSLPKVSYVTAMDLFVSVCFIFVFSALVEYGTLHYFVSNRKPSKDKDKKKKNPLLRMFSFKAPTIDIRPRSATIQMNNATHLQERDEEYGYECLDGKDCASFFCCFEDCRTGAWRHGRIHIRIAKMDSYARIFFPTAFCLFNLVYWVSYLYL
# [2] = test system: Xenopus laevis; assay: Loss of righting reflex (LORR) in tadpoles was determined for anesthetic activity; assay type: functional, organism-based, frog; details: Tadpole
# [3] = target: T1, GABA-A receptor; alpha-1/beta-2/gamma-2; assay: Direct activation of human Gamma-aminobutyric acid A receptor alpha-1-beta-2-gamma-2; assay type: protein-complex assay
# [4] = test system: Xenopus laevis; assay: Loss of righting reflex (LORR) in Xenopus laevis tadpoles was determined for anesthetic activity; assay type: functional, organism-based, frog; details: Tadpole
Compound,pEC50 [1],pEC50 [2],pEC50 [3],pEC50 [4]
Oc1c(C2CCCCC2)cccc1C1CCCCC1,1.00,–,–,–
CC(C)Cc1cccc(CC(C)C)c1O,5.60,6.40,4.70,–
CCc1cccc(CC)c1N=C=S,4.80,3.80,3.50,–
Oc1ccccc1C1CCCC1,1.00,–,–,–
CCc1cccc(CC)c1N=C=O,4.60,3.80,3.60,–
CC(C)c1cc(O)c(O)c(C(C)C)c1,4.40,4.30,3.70,–
CCc1cccc(CC)c1Br,4.70,3.80,3.90,–
Cc1cccc(C(C)(C)C)c1O,6.30,4.50,4.70,–
CCc1cccc(CC)c1O,4.90,4.70,3.90,–
CC(C)c1ccccc1O,4.40,3.90,3.80,–
Cc1cccc(C)c1O,3.90,4.20,3.70,–
CC(C)(C)c1cc(O)cc(C(C)(C)C)c1,4.00,4.00,3.30,–
CC(C)c1cc(I)cc(C(C)C)c1O,5.00,–,4.50,5.60
Oc1ccccc1 [PHENOL],3.00,2.80,–,–
CC(C)c1cccc(C(C)C)c1O [PROPOFOL],5.70,5.70,5.00,–
COc1cccc(OC)c1O [SYRINGOL],1.00,–,–,–
